pKi: −log10 of the molar value. One block for each molecule: values may come before it.
Tests used:
[1] = model of multiple sclerosis; cited from earlier work
[2] = rats; cited from earlier work
[3] = rats; cited from earlier work; remark: listed apart in the source
[4] = biological target: T1, FAAH (solubilized liver plasma membrane extract) (Rattus norvegicus, UniProt P97612); assay: FAAH enzyme assay, hydrolysis of 14C-oleamide to oleic acid; assay type: biochemical; details: 14C-oleamide substrate, pH 9.0, 20-23° C., Dixon method
T1 construct: using a solubilized liver plasma membrane extract containing FAAH; from tissue; host or cells: liver (plasma membrane extract, solubilized)
T1 sequence (P97612 1-579): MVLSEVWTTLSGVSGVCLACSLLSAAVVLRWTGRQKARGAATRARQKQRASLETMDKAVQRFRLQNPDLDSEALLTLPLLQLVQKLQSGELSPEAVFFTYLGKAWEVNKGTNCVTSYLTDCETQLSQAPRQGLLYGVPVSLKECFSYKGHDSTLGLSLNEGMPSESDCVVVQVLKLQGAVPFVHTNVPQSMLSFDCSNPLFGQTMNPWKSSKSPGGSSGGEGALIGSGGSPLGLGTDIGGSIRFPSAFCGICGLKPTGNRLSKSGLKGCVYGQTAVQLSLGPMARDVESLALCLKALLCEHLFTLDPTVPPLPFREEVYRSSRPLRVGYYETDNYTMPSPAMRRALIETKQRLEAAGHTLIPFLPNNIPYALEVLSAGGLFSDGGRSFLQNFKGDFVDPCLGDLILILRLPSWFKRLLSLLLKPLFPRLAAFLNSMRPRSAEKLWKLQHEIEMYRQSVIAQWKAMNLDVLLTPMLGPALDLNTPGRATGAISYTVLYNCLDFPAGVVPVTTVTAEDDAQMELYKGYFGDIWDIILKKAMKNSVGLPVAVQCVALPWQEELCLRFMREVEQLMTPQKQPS
Experimental: K; values were determined by the Dixon. Method (x-intercepts of weighted linear fits of [I] versus 1/rate plots at constant substrate concentration, which were converted to Ki values using the formula Ki=−xint/[1+[S]/Km]).

[5] = rats; cited from earlier work; remark: listed apart in the source
FAAH = biological target: T2, FAAH (Homo sapiens, UniProt O00519); details: cited from earlier work
T2 sequence (O00519 1-579): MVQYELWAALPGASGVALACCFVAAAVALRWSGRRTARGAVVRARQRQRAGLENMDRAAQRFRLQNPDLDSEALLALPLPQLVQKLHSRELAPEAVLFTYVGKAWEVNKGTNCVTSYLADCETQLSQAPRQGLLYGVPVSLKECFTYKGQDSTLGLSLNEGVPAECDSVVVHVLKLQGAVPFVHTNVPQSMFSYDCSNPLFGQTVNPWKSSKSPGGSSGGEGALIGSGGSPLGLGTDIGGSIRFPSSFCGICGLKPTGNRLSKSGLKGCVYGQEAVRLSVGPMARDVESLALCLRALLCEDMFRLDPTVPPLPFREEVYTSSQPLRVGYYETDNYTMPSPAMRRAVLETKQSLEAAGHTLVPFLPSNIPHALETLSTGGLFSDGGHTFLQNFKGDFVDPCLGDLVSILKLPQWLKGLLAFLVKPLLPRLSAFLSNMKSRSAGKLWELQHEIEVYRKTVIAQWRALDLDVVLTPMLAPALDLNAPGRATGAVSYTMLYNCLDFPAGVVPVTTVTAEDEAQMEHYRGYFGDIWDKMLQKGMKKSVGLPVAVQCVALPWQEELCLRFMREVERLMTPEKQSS

[6] = rats; cited from earlier work; remark: listed apart in the source
[7] = rats; cited from earlier work; remark: listed apart in the source
[8] = rat; cited from earlier work

SMILES: CCCCCCCCCCCCCCCCS(=O)(=O)F [AM374]
effect on spasticity in CREAE mice [1]: significantly reduce spasticity

SMILES: Cc1nc(-c2ccccc2)c(-c2ccccc2)n1CCCCCCNC(=O)Oc1ccccc1F [BMS-1]
analgesic effect in Chung spinal nerve ligation model [2]: analgesic effect | analgesic effect in Hargraves test [3]: analgesic effect

pKi [4]: 7.62
SMILES: O=C(CCCCCCc1ccccc1)c1ncc(C(=O)N2CCOCC2)o1 [Example 4, 1-(5-(Morpholine-4-carbonyl)oxazol-2-yl)-7-phenylheptan-1-one]

pKi [4]: 8.10
SMILES: O=C(CCCCCCc1ccccc1)c1ncc(C(=O)N2CCCCC2)o1 [Example 5, 7-Phenyl-1-(5-(piperidine-1-carbonyl)oxazol-2-yl)heptan-1-one]

pKi [4]: 8.00
SMILES: O=C(CCCCCCc1ccccc1)c1ncc(C(=O)N2CCSCC2)o1 [Example 6, 7-Phenyl-1-(5-(thiomorpholine-4-carbonyl)oxazol-2-yl)heptan-1-one]

pKi [4]: 7.10
SMILES: CN1CCN(C(=O)c2cnc(C(=O)CCCCCCc3ccccc3)o2)CC1 [Example 7, 1-(5-(4-Methylpiperazine-1-carbonyl)oxazol-2-yl)-7-phenylheptan-1-one]

pKi [4]: 8.15
SMILES: CNC(=O)c1cnc(C(=O)CCCCCCc2ccccc2)o1 [Example 8, N-Methyl-2-(7-phenylheptanoyl)oxazole-5-carboxamide]

pKi [4]: < 8.70
SMILES: O=C(CCCCCCc1ccccc1)c1ncc(S(=O)(=O)C(F)(F)F)o1 [Example 22, 7-Phenyl-1-(5-(trifluoromethylsulfonyl)oxazol-2-yl)heptan-1-one]

SMILES: O=C(CCCCCCc1ccccc1)c1ncc(-c2ccccn2)o1 [OL-135]
analgesic efficacy in hot plate test [5]: analgesic activity | inhibition of FAAH (FAAH): potent inhibitor | analgesic activity in tail emersion test [6]: analgesic activity

SMILES: NC(=O)c1cccc(-c2cccc(OC(=O)NC3CCCCC3)c2)c1 [URB-597]
efficacy in zero plus maze model of anxiety [7]: efficacy | analgesic efficacy in hot plate test [5]: analgesic efficacy | analgesic efficacy in formalin test [8]: analgesic efficacy
